Test results from BindingDB's records for patent US11407738 (Achillion Pharmaceuticals, 2022).

Molecular target: Complement factor D (Homo sapiens, UniProt P00746)
Assay: Human Factor D Assay
Method: Human Factor D (purified from human serum, Complement Technology, Inc.) at 80 nM final concentration is incubated with test compound at various concentrations for 5 min at room temperature in 50 mM Tris, 1M NaCl, pH 7.5. A synthetic substrate Z-L-Lys-SBzl and DTNB (Ellman's reagent) are added to final concentrations of 100 μM each. […] IC50 values are calculated by nonlinear regression of complement Factor D reaction rates as a function of test compound concentration.

Chain of Complement factor D (P00746 whole entry): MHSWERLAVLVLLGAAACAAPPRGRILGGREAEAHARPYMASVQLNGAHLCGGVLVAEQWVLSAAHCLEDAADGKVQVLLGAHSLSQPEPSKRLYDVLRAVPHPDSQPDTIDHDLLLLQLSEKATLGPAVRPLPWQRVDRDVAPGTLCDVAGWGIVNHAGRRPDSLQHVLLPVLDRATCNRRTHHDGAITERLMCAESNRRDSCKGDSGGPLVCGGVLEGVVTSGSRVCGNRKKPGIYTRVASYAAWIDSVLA

IC50: in the range around 5.5 µM
Structure (SMILES): CC(=O)c1nn(CC(=O)N2C[C@H](F)C[C@H]2C(=O)NC2CCN(C(=O)c3cn[nH]c3)CC2)c2ccc(-c3cnc(C)nc3)cc12 [US11407738, Example 00330]
